Experimental data: patent US11835503B2, “TMA-formation inhibitor treatment for elevated TMA-containing compound diseases” (The Cleveland Clinic Foundation, priority 2009, dated 2023)

How the values were obtained:
intestinal microflora [1] = test: D3-carnitine gavage in mice, plasma D3-TMA and D3-TMANO by stable isotope dilution LC/MS/MS; type: in vivo; conditions: gavage at t=0, plasma
Excerpt: In additional work, mice were gavaged with D3-carnitine and the time dependent appearance of D3-TMA and TMANO were quantified in plasma. Where indicated in FIG. 8, mice were pretreated for 3 weeks with a broad spectrum antibiotic cocktail to suppress intestinal microflora. […] Plasma levels of the deuterium (D3) labeled metabolites of D3-carnitine, D3-TMA and D3-TMANO, were quantified in plasma by stable isotope dilution LC/MS/MS analysis. D3-Carnitine was given by gavage feeding to mice at t=0. Results are shown in FIG. 8, with TMA production shown in FIG. 8B and TMANO production in FIG. 8C.

intestinal microflora [2] = test: D3-carnitine gavage in mice, plasma D3-crotonobetaine and D3-gamma-butyrobetaine by LC/MS/MS; type: in vivo
Excerpt: In further work, mice were gavaged with D3-carnitine and the time dependent appearance of D3-crotonobetaine and gamma butyrobetaine were quantified in plasma. Where indicated in FIG. 9, mice were pretreated for 3 weeks with a broad spectrum antibiotic cocktail to suppress intestinal microflora. […] D3-crotonobetaine and D3-gamma-butyrobetaine were quantified in plasma by LC/MS/MS analysis isolated at the indicated times following D3-carnitine gavage feeding. Results are shown in FIG. 9, with crotonbetaine production shown in FIG. 9A, and gamma-butyrobetain production shown in FIG. 9B.

intestinal flora = test: oral d9-(trimethyl)-PC challenge in subjects, time course of plasma d9-TMA by LC/MS/MS; type: in vivo, humans; conditions: human subjects, 250 mg oral
Method: TMA is detected in plasma. While TMA is a gas at room and body temperature, if one acidifies the plasma, and the sample flash frozen and analyzed immediately upon thaw, one can measure the TMA cation by mass spectrometry.
Subjects were given 250 mg of d9-(trimethyl)-PC, and then time course of d9-TMA in plasma quantified. […] Plasma TMA was quantified by LC/MS/MS of samples immediately after blood draw, acidification of the plasma with 10 mM HCl to lower TMA vapor pressure, and snap freezing in liquid nitrogen and storage at −80 C until time of analysis.

Compound	metabolites of D3-carnitine appearing in plasma (D3-TMA, D3-TMANO) (intestinal microflora [1])	metabolites of D3-carnitine appearing in plasma (D3-crotonobetaine, D3-gamma-butyrobetaine) (intestinal microflora [2])	time at which plasma d9-TMA levels increased after the PC challenge (intestinal flora) [h]
[2H]C([2H])([2H])[N+](C)(C)CC(O)CC(=O)[O-] (stereo not drawn) [D3-carnitine]	both TMA and TMANO are generated as a metabolite of carnitine ingestion	both compounds are generated as a metabolite of carnitine ingestion	
d9-(trimethyl)-PC			4 to 8
